Source: patent US20030082101A1, “Accelerators for increasing the rate of formation of free radicals and reactive oxygen species” (Cavalier Discovery, priority 2001, published 2003)

Experiments:
[1] = system: deoxyribose; test: TBARS assay, additives in solutions containing iron or iron plus a chelant, ultrasound (Example 5); type: biochemical; conditions: 0.08-0.1 mM ferric iron; EDTA 0.15 mM; 30 W 2 MHz 10 min
Method: The following example uses the thiobarbituric acid-reactive substances (TBARS) assay to identify compounds that enhance radical production during ultrasound exposure of solutions containing iron or iron plus a chelant. All solutions were prepared in pH 7.5 phosphate buffer containing approximately 2 mM deoxyribose, 0.01% hydrogen peroxide, 0.08-0.1 mM ferric iron, and the additives indicated in the table below. Solutions were sonicated at 30 W, 2 MHz, 32-34 degrees Celsius for ten minutes using a PZT-8 1.8 cm diameter custom transducer. The sonicated solution was placed on an orbit shaker rotating at 25 RPM to ensure even sonication of the solution while the transducer was held stationary. Control solutions were placed in a controlled temperature bath at 32-34 degrees Celsius without sonication. […] The test tube was sealed and heated to 90 degrees Celsius for 30 minutes and allowed to cool to room temperature for 20 minutes. The absorbance at 532 nm was measured. The enhanced radical production during ultrasound exposure was determined by comparing the amount of deoxyribose degradation that occurs in the sonicated solution versus the control solution using the following equation: [formula]

[2] = system: deoxyribose; test: TBARS assay, chelants during ultrasound exposure, ferric iron (Example 2); type: biochemical; conditions: 0.02-0.03 mM ferric iron, 0.04-0.05 mM chelant, 0.01% hydrogen peroxide, pH 7.5, 30 W 2 MHz 10 min
Method: (§1) The following example uses the thiobarbituric acid-reactive substances (TBARS) assay to identify chelants that enhance radical production during ultrasound exposure. All solutions were prepared in pH 7.5 phosphate buffer containing approximately 2 mM deoxyribose, 0.01% hydrogen peroxide, 0.02-0.03 mM ferric iron, and 0.04-0.05 mM chelant. Solutions were sonicated at 30 W, 2 MHz, 32-34 degrees Celsius for ten minutes using a PZT-8 1.8 cm diameter custom transducer. The sonicated solution was placed on an orbit shaker rotating at 25 RPM to ensure even sonication of the solution while the transducer was held stationary. Control solutions were placed in a controlled temperature bath at 32-34 degrees Celsius without sonication. After 10 minutes of treatment, 1 mL test solution was placed in a test tube followed by 2 mL of 1% 2-thiobarbituric acid and 2 mL of 2.8% trichloroacetic acid. The test tube was sealed and heated to 90 degrees Celsius for 30 minutes and allowed to cool to room temperature for 20 minutes. The absorbance at 532 nm was measured. The enhanced radical production during ultrasound exposure was determined by comparing the amount of deoxyribose degradation that occurs in the sonicated solution versus the control solution using the following equation: [formula]

[3] = system: deoxyribose; test: TBARS assay, chelants during ultrasound exposure, ferrous iron (Example 1); type: biochemical; conditions: 0.025 mM ferrous iron, 0.03-0.04 mM chelant, 0.01% hydrogen peroxide, pH 7.5, 30 W 2 MHz 10 min
Method: as §1, with “peroxide, 0.025” for “peroxide, 0.02-0.03”, “mM ferrous” for “mM ferric”, “and 0.03-0.04” for “and 0.04-0.05”, “exposure is” for “exposure was”

[4] = on chelation of iron; cited from earlier work

O=C(O)CN(CCN(CC(=O)O)CC(=O)O)CC(=O)O [Ethylenediaminetetraacetic acid]
% Ultrasound Mediated Activity vs Control [1]: 277% | % Ultrasound Mediated Activity vs Control [2]: 575% | % Ultrasound Mediated Activity vs Control [3]: 64% | lowering of the redox potential of Fe(III)/Fe(II) [4]: 0.65 V
